This note sets out measurements from the supplement of paper PMC10307832.

What all share (assay): relative viability (nuclei count vs DMSO), 5 days (fraction); higher = more cells survive
Compound in the experiment “AZD1208 + Tozasertib”: N[C@@H]1CCCN(c2c(/C=C3\SC(=O)NC3=O)cccc2-c2ccccc2)C1 [AZD1208] + Cc1cc(Nc2cc(N3CCN(C)CC3)nc(Sc3ccc(NC(=O)C4CC4)cc3)n2)n[nH]1 [Tozasertib] (partner 0.1 µM)
An outline of the steps:
(§1)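 Relative viability is defined as nuclei in treated wells over nuclei in vehicle wells. Duplicate plates were run and medians reported. Lung cancer cell lines in 1536-well plates were dosed by pin tool one day after seeding, with one drug or with a fixed anchor-drug dose plus five library-drug doses (not always all listed) in √10 steps, and nuclei were counted after 5 days.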

Compound in the experiment “AZD1208 + Phenformin”: N[C@@H]1CCCN(c2c(/C=C3\SC(=O)NC3=O)cccc2-c2ccccc2)C1 [AZD1208] + N=C(N)NC(=N)NCCc1ccccc1 [Phenformin] (partner 250 µM)
An outline of the steps:
as §1

Compound in the experiment “AZD1208 + Palbociclib”: N[C@@H]1CCCN(c2c(/C=C3\SC(=O)NC3=O)cccc2-c2ccccc2)C1 [AZD1208] + CC(=O)c1c(C)c2cnc(Nc3ccc(N4CCNCC4)cn3)nc2n(C2CCCC2)c1=O [Palbociclib] (partner 0.5 µM)
An outline of the steps:
as §1

Compound in the experiment “AZD1208 + Alpelisib”: N[C@@H]1CCCN(c2c(/C=C3\SC(=O)NC3=O)cccc2-c2ccccc2)C1 [AZD1208] + Cc1nc(NC(=O)N2CCC[C@H]2C(N)=O)sc1-c1ccnc(C(C)(C)C(F)(F)F)c1 [Alpelisib] (partner 2 µM)
In a few lines: as §1

With BEN, the relative viability with AZD1208 + Tozasertib (first compound 0.08 µM) is 0.507; with AZD1208 + Tozasertib (first compound 0.253 µM), 0.414; with AZD1208 + Tozasertib (first compound 0.8 µM) it was 0.385; with AZD1208 + Tozasertib (first compound 2.53 µM), 0.374; with AZD1208 + Tozasertib (first compound 8 µM) it was 0.435; with AZD1208 + Phenformin (first compound 0.08 µM), 0.269. Besides, the relative viability came out at 0.267 with AZD1208 + Phenformin (first compound 0.253 µM); 0.244 with AZD1208 + Phenformin (first compound 0.8 µM); 0.259 with AZD1208 + Phenformin (first compound 2.53 µM); 0.269 with AZD1208 + Phenformin (first compound 8 µM); 0.565 with AZD1208 + Palbociclib (first compound 0.08 µM); 0.446 with AZD1208 + Palbociclib (first compound 0.253 µM). In addition, the relative viability with AZD1208 + Palbociclib (first compound 0.8 µM) stood at 0.472; with AZD1208 + Palbociclib (first compound 2.53 µM), 0.505; with AZD1208 + Palbociclib (first compound 8 µM), 0.431; in the experiment with AZD1208 + Alpelisib (first compound 0.08 µM), 0.876; in the experiment with AZD1208 + Alpelisib (first compound 0.253 µM), 1.1; in the experiment with AZD1208 + Alpelisib (first compound 0.8 µM), 0.704. Also, the results for the relative viability with AZD1208 + Alpelisib (first compound 2.53 µM) and with AZD1208 + Alpelisib (first compound 8 µM) were 0.673 and 0.507, respectively.
Take CAL-12T: the relative viability with AZD1208 + Tozasertib (first compound 0.08 µM) was 0.35; in the experiment with AZD1208 + Tozasertib (first compound 0.253 µM) it was 0.355; in the experiment with AZD1208 + Tozasertib (first compound 0.8 µM), 0.322; with AZD1208 + Tozasertib (first compound 2.53 µM) it was 0.323; with AZD1208 + Tozasertib (first compound 8 µM), 0.271; with AZD1208 + Phenformin (first compound 0.08 µM), 0.517. Moreover, the relative viability with AZD1208 + Phenformin (first compound 0.253 µM) amounted to 0.698; with AZD1208 + Phenformin (first compound 0.8 µM), 0.557; with AZD1208 + Phenformin (first compound 2.53 µM), 0.522; with AZD1208 + Phenformin (first compound 8 µM) it was 0.576; with AZD1208 + Palbociclib (first compound 0.08 µM), 0.501; with AZD1208 + Palbociclib (first compound 0.253 µM), 0.483. Moreover, the relative viability with AZD1208 + Palbociclib (first compound 0.8 µM) stood at 0.569; with AZD1208 + Palbociclib (first compound 2.53 µM) it was 0.434; with AZD1208 + Palbociclib (first compound 8 µM) it was 0.448; with AZD1208 + Alpelisib (first compound 0.08 µM), 1.12; in the experiment with AZD1208 + Alpelisib (first compound 0.253 µM) it was 1.22; with AZD1208 + Alpelisib (first compound 0.8 µM), 1.13. Further, the relative viability with AZD1208 + Alpelisib (first compound 2.53 µM) came to 1.1; in the experiment with AZD1208 + Alpelisib (first compound 8 µM), 0.851.
Consider COR-L23, for which the relative viability is 0.152 with AZD1208 + Tozasertib (first compound 0.08 µM); 0.174 with AZD1208 + Tozasertib (first compound 0.253 µM); 0.187 with AZD1208 + Tozasertib (first compound 0.8 µM); 0.182 with AZD1208 + Tozasertib (first compound 2.53 µM); 0.171 with AZD1208 + Tozasertib (first compound 8 µM); 0.491 with AZD1208 + Phenformin (first compound 0.08 µM). The relative viability with AZD1208 + Phenformin (first compound 0.253 µM) was 0.469; with AZD1208 + Phenformin (first compound 0.8 µM), 0.417; with AZD1208 + Phenformin (first compound 2.53 µM) it was 0.419; in the experiment with AZD1208 + Phenformin (first compound 8 µM), 0.408; with AZD1208 + Palbociclib (first compound 0.08 µM) it was 0.288; in the experiment with AZD1208 + Palbociclib (first compound 0.253 µM), 0.312. For the same cell line, the relative viability was 0.256 with AZD1208 + Palbociclib (first compound 0.8 µM); 0.295 with AZD1208 + Palbociclib (first compound 2.53 µM); 0.244 with AZD1208 + Palbociclib (first compound 8 µM); 0.735 with AZD1208 + Alpelisib (first compound 0.08 µM); 0.64 with AZD1208 + Alpelisib (first compound 0.253 µM); 0.715 with AZD1208 + Alpelisib (first compound 0.8 µM). Moreover, the relative viability with AZD1208 + Alpelisib (first compound 2.53 µM) was found to be 0.721; with AZD1208 + Alpelisib (first compound 8 µM), 0.657.
For the cell line COR-L 105, the relative viability in the experiment with AZD1208 + Tozasertib (first compound 0.08 µM) is 0.35; with AZD1208 + Tozasertib (first compound 0.253 µM), 0.384; with AZD1208 + Tozasertib (first compound 0.8 µM) it was 0.376; with AZD1208 + Tozasertib (first compound 8 µM), 0.348; in the experiment with AZD1208 + Phenformin (first compound 0.08 µM), 0.476; with AZD1208 + Phenformin (first compound 0.253 µM) it was 0.567. In addition, the relative viability worked out at 0.478 with AZD1208 + Phenformin (first compound 0.8 µM); 0.477 with AZD1208 + Phenformin (first compound 8 µM); 0.37 with AZD1208 + Palbociclib (first compound 0.08 µM); 0.344 with AZD1208 + Palbociclib (first compound 0.253 µM); 0.379 with AZD1208 + Palbociclib (first compound 0.8 µM); 0.38 in the experiment with AZD1208 + Palbociclib (first compound 2.53 µM). Moreover, the relative viability stood at 0.43 with AZD1208 + Palbociclib (first compound 8 µM); 1.06 in the experiment with AZD1208 + Alpelisib (first compound 0.08 µM); 0.94 with AZD1208 + Alpelisib (first compound 0.253 µM); 0.763 with AZD1208 + Alpelisib (first compound 0.8 µM); 1.06 with AZD1208 + Alpelisib (first compound 2.53 µM); 0.807 with AZD1208 + Alpelisib (first compound 8 µM).
For the cell line Calu-6, the relative viability with AZD1208 + Alpelisib (first compound 0.08 µM) turned out to be 0.993; in the experiment with AZD1208 + Alpelisib (first compound 0.253 µM), 1.03; with AZD1208 + Alpelisib (first compound 0.8 µM) it was 0.889; in the experiment with AZD1208 + Alpelisib (first compound 2.53 µM) it was 0.918; with AZD1208 + Alpelisib (first compound 8 µM), 0.818.
